# Results as given in patent US12419875B2, “Use of Axitinib and analogs thereof in preparing blood-brain barrier permeability regulator” (ZHEJIANG UNIVERSITY, priority 2018, dated 2025).
# Assays:
# U87 MG glioma cells = assay: Cell survival rate by tetrazolium blue colorimetry, U87 MG cells; type: cell-based; details: U87MG cells, 10 μM (therapeutic dose); FIGS. 13 and 14
# Protocol: (§1) FIG. 13: Evaluation of cell survival rate in a Transwell model. A Transwell model of co-incubation of brain microvascular endothelial cells bEnd.3 and glioma cells U87 MG simulates a pathological blood-brain barrier. Axitinib (10 μM) and an Axitinib analog of phosphatidylinositol kinase (PI3K) inhibitor LY294002 (10 μM) were added into the Transwell chamber. After 24 hours, the survival rate of bEnd.3 cells in the Transwell chamber (Panel A) and U87 MG cells in the Transwell outer chamber (Panel B) were detected by tetrazolium blue colorimetry (n=3).
# (§2) FIG. 14: Evaluation of Cytotoxicity for Axitinib and an analog thereof. […] Cell survival rate was detected by tetrazolium blue colorimetry. […]
# (§3) The physiological blood-brain barrier and the pathological blood-brain barrier as constructed in Method 1 and Method 2 in the Example 1 were used as models, respectively. […] Absorbance at 570 nm was measured with a microplate reader. The survival rate of cells was calculated according to the following formula: Survival rate of cells (%)=(absorbance value of a test group/absorbance value of a control group)×100%
# (§4) In addition, bEnd.3 cells and U87 MG glioma cells were used as model cells to evaluate the cytotoxicity of Axitinib and an Axitinib analog of phosphatidylinositol kinase (PI3K) inhibitor LY294002 with the tetrazolium blue colorimetric method. […] Absorbance at 570 nm was measured with a microplate reader.
# bEnd.3 cells = assay: Cell survival rate by tetrazolium blue colorimetry, bEnd.3 cells; type: cell-based; details: 10 μM (therapeutic dose), FIGS. 13 and 14
# Protocol: as §1, §2, §3, §4
# [1] = test system: model of Parkinson's disease; assay: Movement time within 2 minutes, model of Parkinson's disease; type: in vivo, C57/BL6 mice; details: Axitinib 10 mg/kg 7 days; levodopa 20 mg/kg 10 days; vs Parkinson's control; FIG. 28
# Protocol: After the treatment was accomplished, movement time within 2 minutes (walking, lifting of both forelimbs, washing face, hair grooming and the like) was recorded for each of the test groups (n=5).
# After the Axitinib treatment and the levodopa treatment was accomplished, movement time within 2 minutes (walking, lifting of both forelimbs, washing face, hair grooming and the like) was recorded for each of the test groups.
# tyrosine hydroxylase = assay: Striatum tyrosine hydroxylase immunohistochemistry, model of Parkinson's disease; details: Axitinib 10 mg/kg 7 days; levodopa 20 mg/kg 10 days; FIG. 29
# [2] = test system: pathological blood-brain barrier; assay: Evans blue permeation into the brain after treatment, model of Parkinson's disease; type: in vivo, C57/BL6 mice; details: Axitinib 10 mg/kg tail vein 7 days; levodopa 20 mg/kg intraperitoneally 10 days; vs Parkinson's control; FIGS. 26 and 27
smiles,measurement,setting,value
O=c1cc(N2CCOCC2)oc2c(-c3ccccc3)cccc12 [LY294002],Cytotoxicity,U87 MG glioma cells,do not produce significant cytotoxicity
same,Cytotoxicity,bEnd.3 cells,do not produce significant cytotoxicity
N[C@@H](Cc1ccc(O)c(O)c1)C(=O)O [levodopa],Dyskinesia (movement time within 2 minutes),[1],significantly alleviated
same,Expression of striatum tyrosine hydroxylase,tyrosine hydroxylase,significantly up-regulated
same,Amount of Evans blue permeated into the brain,[2],reduced to varied degrees
